Assay results: ChEMBL document CHEMBL6103591, “Discovery of naphthoquinone-furo-piperidone derivatives as dual targeting agents of STAT3 and NQO1 for the treatment of breast cancer” (Eur J Med Chem, 2025)
The source made the active and inactive calls. The rule behind the calls is not given here.

Experiments:
[1] = tested on: MDA-MB-468; experiment: Antiproliferative activity against human MDA-MB-468 cells assessed as reduction in cell viability incubated for 48 hrs by MTT assay; type: functional, cell-based; settings: MDA-MB-468, 48 h
[2] = tested on: MDA-MB-231; experiment: Antiproliferative activity against human MDA-MB-231 cells assessed as reduction in cell viability incubated for 48 hrs by MTT assay; type: functional, cell-based; settings: MDA-MB-231, 48 h
[3] = target: Signal transducer and activator of transcription 3 (Homo sapiens, UniProt P40763); experiment: Inhibition of STAT3 activation in human MDA-MB-231 cells assessed as reduction in STAT3 phosphorylation at Tyr705 residue at 1 uM measured after 24 hrs by Western blot analysis relative to control; type: cell-based
[4] = tested on: MDA-MB-231; experiment: Downregulation of total STAT3 expression in human MDA-MB-231 cells at 1 uM incubated for 24 hrs by Western blotting analysis; type: functional, cell-based
[5] = tested on: MCF7; experiment: Antiproliferative activity against human MCF7 cells incubated for 48 hrs by MTT assay; type: functional, cell-based; settings: MCF7, 48 h
[6] = tested on: MDA-MB-468; experiment: Induction of apoptosis in human MDA-MB-468 cells assessed as early apoptotic cells at 3 uM measured after 24 hrs by Annexin V/propidium iodide (PI) double staining based flow cytometric analysis (reference value: 2.94 %); type: functional
[7] = tested on: MDA-MB-468; experiment: Induction of apoptosis in human MDA-MB-468 cells assessed as late apoptotic cells at 3 uM measured after 24 hrs by Annexin V/propidium iodide (PI) double staining based flow cytometric analysis (reference value: 2.24 %); type: functional
[8] = tested on: MDA-MB-231; experiment: Induction of apoptosis in human MDA-MB-231 cells assessed as late apoptotic cells at 3 uM measured after 24 hrs by Annexin V/propidium iodide (PI) double staining based flow cytometric analysis (reference value: 2.22 %); type: functional
[9] = tested on: MDA-MB-231; experiment: Induction of apoptosis in human MDA-MB-231 cells assessed as early apoptotic cells at 3 uM measured after 24 hrs by Annexin V/propidium iodide (PI) double staining based flow cytometric analysis (reference value: 1.98 %); type: functional

Sequence of Signal transducer and activator of transcription 3 (P40763 whole entry): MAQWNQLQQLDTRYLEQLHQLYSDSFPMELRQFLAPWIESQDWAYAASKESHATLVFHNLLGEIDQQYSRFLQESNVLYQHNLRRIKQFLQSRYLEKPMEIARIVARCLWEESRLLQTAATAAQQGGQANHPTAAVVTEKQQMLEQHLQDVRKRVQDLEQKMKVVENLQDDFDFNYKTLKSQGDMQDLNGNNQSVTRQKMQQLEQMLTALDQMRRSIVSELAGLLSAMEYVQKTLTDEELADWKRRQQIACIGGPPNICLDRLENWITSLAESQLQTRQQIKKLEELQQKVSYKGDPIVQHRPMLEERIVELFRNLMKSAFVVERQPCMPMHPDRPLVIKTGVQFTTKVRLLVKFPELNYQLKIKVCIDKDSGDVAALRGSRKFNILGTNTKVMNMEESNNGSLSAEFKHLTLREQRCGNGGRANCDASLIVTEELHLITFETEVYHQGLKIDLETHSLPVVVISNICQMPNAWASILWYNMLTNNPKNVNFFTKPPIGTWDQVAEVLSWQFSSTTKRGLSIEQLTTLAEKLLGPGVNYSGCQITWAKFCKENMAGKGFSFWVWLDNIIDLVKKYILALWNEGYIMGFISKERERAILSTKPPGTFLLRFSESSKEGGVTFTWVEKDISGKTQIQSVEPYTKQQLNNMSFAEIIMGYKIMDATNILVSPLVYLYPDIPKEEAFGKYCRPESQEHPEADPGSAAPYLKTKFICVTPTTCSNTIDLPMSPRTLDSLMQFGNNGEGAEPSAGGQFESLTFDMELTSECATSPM

Compound `COC(=O)CN1CCc2c(oc3c2C(=O)C(=O)c2ccccc2-3)C1=O` has an IC50 [1] of 1550 nM and an IC50 [2] of 1500 nM.
For `CN(C)CCN1CCc2c(oc3c2C(=O)C(=O)c2ccccc2-3)C1=O`, the IC50 [1] was 1560 nM, the inhibition [3] was “Active” and the IC50 [2] was 540 nM.
With `O=C1C(=O)c2c(oc3c2CCN(C2CCC(N4CCOCC4)CC2)C3=O)-c2ccccc21` (stereo not drawn) the IC50 [1] was 1290 nM and the IC50 [2] was 1230 nM.
In the case of `CC(C)C[C@@H](CO)N1CCc2c(oc3c2C(=O)C(=O)c2ccccc2-3)C1=O`, the IC50 [1] is reported as 2450 nM and the IC50 [2] is reported as 2490 nM.
In the case of `O=C1C(=O)c2c(oc3c2CCN(CCCCO)C3=O)-c2ccccc21`, the IC50 [1] is reported as 3070 nM and the IC50 [2] is reported as 2290 nM.
With `O=C1C(=O)c2c(oc3c2CCN([C@H](CO)CCCO)C3=O)-c2ccccc21` the IC50 [1] was > 4000 nM and the IC50 [2] was > 4000 nM.
`O=C1C(=O)c2c(oc3c2CCN(CCN2CCOCC2)C3=O)-c2ccccc21` was tested, and the IC50 [1] was 1960 nM and the IC50 [2] was 1080 nM.
`CN1CCN(CCN2CCc3c(oc4c3C(=O)C(=O)c3ccccc3-4)C2=O)CC1` showed an IC50 [1] of 410 nM and an IC50 [2] of 1300 nM.
`COC(=O)[C@H](Cc1ccccc1)N1CCc2c(oc3c2C(=O)C(=O)c2ccccc2-3)C1=O` gave an IC50 [1] of 2420 nM and an IC50 [2] of 930 nM.
`COC(=O)CCN1CCc2c(oc3c2C(=O)C(=O)c2ccccc2-3)C1=O` gave an IC50 [1] of 2420 nM and an IC50 [2] of 2530 nM.
Compound `CN(C)CCn1ccc2c3c(oc2c1=O)-c1ccccc1C(=O)C3=O` has an IC50 [1] of 1210 nM and an IC50 [2] of 840 nM.
For `O=C1C(=O)c2c(oc3c2CCN(CCCn2ccnc2)C3=O)-c2ccccc21`, the IC50 [1] was 2370 nM and the IC50 [2] was 2940 nM.
`C[C@@H]1CN(CCCN2CCc3c(oc4c3C(=O)C(=O)c3ccccc3-4)C2=O)CCO1` showed an IC50 [1] of 1580 nM and an IC50 [2] of 680 nM.
For `O=C1C(=O)c2c(oc3c2CCN(CCC(=O)N2CCCCC2)C3=O)-c2ccccc21`, the IC50 [1] was 2500 nM and the IC50 [2] was 3690 nM.
`O=C1C(=O)c2c(oc3c2CCN(CCCN2CCOCC2)C3=O)-c2ccccc21` gave an IC50 [1] of 1240 nM and an IC50 [2] of 740 nM.
For `CCN(CC)CCN1CCc2c(oc3c2C(=O)C(=O)c2ccccc2-3)C1=O`, the IC50 [1] was 1310 nM, the inhibition [3] was “Active” and the IC50 [2] was 610 nM.
For `C[C@@H](C(N)=O)N1CCc2c(oc3c2C(=O)C(=O)c2ccccc2-3)C1=O`, the IC50 [1] was 2890 nM and the IC50 [2] was 3510 nM.
`COC(=O)[C@H](CC(C)C)N1CCc2c(oc3c2C(=O)C(=O)c2ccccc2-3)C1=O` showed an IC50 [1] of 2660 nM and an IC50 [2] of 2440 nM.
Work on `CCN(CC)CCn1ccc2c3c(oc2c1=O)-c1ccccc1C(=O)C3=O` yielded an IC50 [1] of 1180 nM and an IC50 [2] of 1840 nM.
Work on `O=C1C(=O)c2c(oc3c2CCN([C@H](CO)Cc2ccccc2)C3=O)-c2ccccc21` yielded an IC50 [1] of 2420 nM and an IC50 [2] of 930 nM.
Compound `O=CN1CCN(CCCN2CCc3c(oc4c3C(=O)C(=O)c3ccccc3-4)C2=O)CC1` has an IC50 [1] of 3690 nM and an IC50 [2] of 3270 nM.
In the case of `O=C1C(=O)c2c(oc3c2CCN(CCCN2CCCCC2)C3=O)-c2ccccc21`, the Activity [4] is reported as “Active”, the IC50 [1] is reported as 1200 nM and the inhibition [3] is reported as 100%. For the same compound, the IC50 [2] was 330 nM.
`CC1(C)CCC2=C(O1)c1ccccc1C(=O)C2=O` [LAPACHONE] showed an IC50 [5] of 3990 nM.
In the case of `O=C1C(=O)c2c(oc3c2CCN(CCCN2CC4(COC4)C2)C3=O)-c2ccccc21`, the IC50 [1] is reported as 1460 nM and the IC50 [2] is reported as 920 nM.
`CCN(CC)CCCN1CCc2c(oc3c2C(=O)C(=O)c2ccccc2-3)C1=O` was tested, and the IC50 [1] was 1070 nM, the inhibition [3] was “Active” and the IC50 [2] was 650 nM.
`O=C1C(=O)c2c(oc3c2CCN(CCO)C3=O)-c2ccccc21` gave an IC50 [1] of 1430 nM and an IC50 [2] of 750 nM.
With `COC(=O)CCCN1CCc2c(oc3c2C(=O)C(=O)c2ccccc2-3)C1=O` the IC50 [1] was 2370 nM and the IC50 [2] was 2510 nM.
In the case of `C[C@@H]1CN(CCCN2CCc3c(oc4c3C(=O)C(=O)c3ccccc3-4)C2=O)C[C@H](C)N1`, the IC50 [1] is reported as 2490 nM and the IC50 [2] is reported as > 4000 nM.
`O=C1C(=O)c2c(oc3c2CCN(CCC(=O)N2CCOCC2)C3=O)-c2ccccc21` gave an IC50 [1] of 2240 nM and an IC50 [2] of 3050 nM.
In the case of `CN(C)CCCN1CCc2c(oc3c2C(=O)C(=O)c2ccccc2-3)C1=O`, the IC50 [1] is reported as 1430 nM and the IC50 [2] is reported as 740 nM.
With `COC(=O)[C@H](C)N1CCc2c(oc3c2C(=O)C(=O)c2ccccc2-3)C1=O` the IC50 [1] was 1210 nM and the IC50 [2] was 680 nM.
Work on `C[C@@H](CO)N1CCc2c(oc3c2C(=O)C(=O)c2ccccc2-3)C1=O` yielded an IC50 [1] of 1310 nM and an IC50 [2] of 640 nM.
Compound `C[C@H]1CN(CCCN2CCc3c(oc4c3C(=O)C(=O)c3ccccc3-4)C2=O)CCO1` has an IC50 [1] of 1720 nM and an IC50 [2] of 800 nM.
For `CC(=O)c1cc2c(o1)C(=O)c1ccccc1C2=O` [NAPABUCASIN], the Activity [6] was 8.87%, the Activity [7] was 6% and the Activity [8] was 6.23%. It also gave an IC50 [1] of 3590 nM, an Activity [9] of 3.34% and an IC50 [2] of 3500 nM.
In the case of `CNC(=O)[C@H](Cc1ccccc1)N1CCc2c(oc3c2C(=O)C(=O)c2ccccc2-3)C1=O`, the IC50 [1] is reported as 2550 nM and the IC50 [2] is reported as 3070 nM.
Compound `O=C1C(=O)c2c(oc3c(=O)n(CCN4CCCCC4)ccc23)-c2ccccc21` has an IC50 [1] of 630 nM and an IC50 [2] of 880 nM.
In the case of `O=C1C(=O)c2c(oc3c2CCN(CCCN2CCCC2)C3=O)-c2ccccc21`, the IC50 [1] is reported as 1330 nM and the IC50 [2] is reported as 910 nM.
For `CN1CCN(CCCN2CCc3c(oc4c3C(=O)C(=O)c3ccccc3-4)C2=O)CC1`, the IC50 [1] was 770 nM and the IC50 [2] was 750 nM.
Work on `COC(=O)[C@H](CO)N1CCc2c(oc3c2C(=O)C(=O)c2ccccc2-3)C1=O` yielded an IC50 [1] of 1460 nM and an IC50 [2] of 3780 nM.
In the case of `O=C1C(=O)c2c(oc3c2CCN([C@H](CO)Cc2ccc(O)cc2)C3=O)-c2ccccc21`, the IC50 [1] is reported as 2620 nM and the IC50 [2] is reported as > 4000 nM.
Work on `COC(=O)CC[C@@H](C(=O)OC)N1CCc2c(oc3c2C(=O)C(=O)c2ccccc2-3)C1=O` yielded an IC50 [1] of 2370 nM and an IC50 [2] of 3480 nM.
`CNC(=O)[C@H](C)N1CCc2c(oc3c2C(=O)C(=O)c2ccccc2-3)C1=O` was tested, and the IC50 [1] was 1380 nM and the IC50 [2] was 2620 nM.
Work on `CNC(=O)[C@H](CC(C)C)N1CCc2c(oc3c2C(=O)C(=O)c2ccccc2-3)C1=O` yielded an IC50 [1] of 2320 nM and an IC50 [2] of 1930 nM.
In the case of `COC(=O)[C@H](Cc1ccc(O)cc1)N1CCc2c(oc3c2C(=O)C(=O)c2ccccc2-3)C1=O`, the IC50 [1] is reported as 2430 nM and the IC50 [2] is reported as 3330 nM.
`O=C1C(=O)c2c(oc3c2CCN(CCCO)C3=O)-c2ccccc21` gave an IC50 [1] of 2230 nM and an IC50 [2] of 1140 nM.
